Measured values: PubChem BioAssay (NCI)
Values joined by “and” are separate entries in the source; they are usually repeats but may differ in a detail not shown here. Equal values may be shown once.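 Cultured in 96-well plates, cells were exposed to test compound for 48 hours across five concentrations. GI50 is the concentration that inhibits growth by half. TGI denotes the concentration required for complete inhibition of growth.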 *1 amine or outer side, *2 acyl side, *3 side chain or, on linkers, in order; H or OH if unused. Where a SMILES comes first, the peptide text is derived from it. [ ]: non-standard residue; d: D form. ξ: configuration not given here. X56 = CC[C@H](C)[C@H](OC(=O)[C@@H](C)[C@@H](CC)N[*:1])C(=O)[*:2]; X32 = C[C@H](N[*:1])C(=O)C(C)(C)C(=O)[*:2]; X21 = CC[C@@H](C)C(N[*:1])C(=O)[*:2]; NMeY = CN[C@@H](Cc1ccc(O)cc1)C(=O)O; NMeL = CN[C@@H](CC(C)C)C(=O)O; NMeV = CN[C@H](C(=O)O)C(C)C; ξR = N=C(N)NCCCC(N)C(=O)O; ξI = CCC(C)C(N)C(=O)O; ξL = CC(C)CC(N)C(=O)O; ξK = NCCCCC(N)C(=O)O; ξV = CC(C)C(N)C(=O)O; ξA = CC(N)C(=O)O

Assays:
Assay in all cases: growth of human tumour cells (NCI), 48 h
ACHN renal = test system: ACHN renal
CAKI-1 renal = test system: CAKI-1 renal
HL-60(TB) leukemia = test system: HL-60(TB) leukemia
IGROV1 ovarian = test system: IGROV1 ovarian
M14 melanoma = test system: M14 melanoma
NCI-H226 lung = test system: NCI-H226 lung
NCI-H23 lung = test system: NCI-H23 lung
SNB-75 CNS = test system: SNB-75 CNS
SK-MEL-2 melanoma = test system: SK-MEL-2 melanoma
SR leukemia = test system: SR leukemia

Structure (SMILES) | TGI (ACHN renal) | TGI (CAKI-1 renal) | TGI (HL-60(TB) leukemia) | TGI (IGROV1 ovarian) | TGI (M14 melanoma) | TGI (NCI-H226 lung) | TGI (NCI-H23 lung) | TGI (SNB-75 CNS) | GI50 (ACHN renal) | GI50 (CAKI-1 renal) | GI50 (IGROV1 ovarian) | GI50 (M14 melanoma) | GI50 (NCI-H226 lung) | GI50 (NCI-H23 lung) | TGI (SK-MEL-2 melanoma) | GI50 (SNB-75 CNS) | GI50 (SR leukemia) | TGI (SR leukemia) | GI50 (HL-60(TB) leukemia) | GI50 (SK-MEL-2 melanoma)
CC/C=C/c1cc2cc[nH]c2c2c1C(C)C[C@@H]2C (stereo partly specified) | > 100 µM | > 100 µM | 58.3 µM | > 100 µM | 74.9 µM | 39 µM | 58.6 µM | 70.1 µM | – | – | – | – | – | – | – | – | – | – | – | –
CC[C@H](C)[C@@H]1OC(=O)[C@@H](C)[C@@H](CC)NC(=O)[C@H](C)NC(=O)C(C)(C)C(=O)[C@H](C)NC(=O)[C@H](Cc2ccc(OC)cc2)N(C)C(=O)[C@H](C(C)C)N(C)C(=O)CNC(=O)[C@H](CC(C)C)N(C)C(=O)CNC1=O (cyclo(A[X56]G[NMeL]G[NMeV][NMeY](Me)[X32])) | 0.332 µM and 0.0908 µM | 0.122 µM and 0.0888 µM | – | 0.306 µM and 0.102 µM | 2.02 µM and 0.786 µM | 3.75 µM and 1.06 µM | 3.66 µM | – | < 0.0165 µM | 0.0259 µM | 0.0193 µM | 0.0403 µM | 0.0731 µM | 0.367 µM | 0.438 µM and 2.68 µM | < 0.0154 µM | 0.063 µM | 1.06 µM and 0.6 µM | – | –
O=C(NCc1ccncc1)C1COc2cc(-c3cc(=O)c4ccccc4o3)ccc2O1 (stereo unspecified) | > 100 µM | – | > 100 µM | > 100 µM | > 100 µM | – | > 100 µM | > 100 µM | – | – | – | – | – | – | > 100 µM | – | – | > 100 µM | – | –
Nc1nc(-c2cccc([N+](=O)[O-])c2)cc(-c2cc(-c3cccc([N+](=O)[O-])c3)nc(N)n2)n1 | > 100 µM | > 100 µM | > 100 µM | > 100 µM | > 100 µM | > 100 µM | > 100 µM | – | – | – | – | – | – | – | > 100 µM | – | – | > 100 µM | – | –
CC(=O)/C=C/c1ccc(C)cc1 | > 100 µM | > 100 µM | > 100 µM | > 100 µM | > 100 µM | > 100 µM | > 100 µM | > 100 µM | – | – | – | – | – | – | > 100 µM | – | – | – | – | –
c1ccc(COC2(OCc3ccccc3)CC3OC2C2NN=NC32)cc1 (stereo unspecified) | > 100 µM | > 100 µM | 33.7 µM | 76.3 µM | 39.4 µM | 39.3 µM | 34.3 µM | 42.3 µM | – | – | – | – | – | – | > 10 µM | – | – | – | – | –
CCC(C)C1NC(=O)C(CC(C)C)NC(=O)C(C)NC(=O)C(C(C)C)NC(=O)C(CCCCN)NC(=O)C(CC(C)C)NC(=O)C(C(C)C)NC(=O)[C@H](C)NC(=O)C(C(C)CC)NC(=O)C(CCCN=C(N)N)NC(=O)C(CCCCN)NC(=O)C(CCCN=C(N)N)NC(=O)C(CCCCN)NC(=O)C([C@H](C)CC)NC(=O)C(CCCCN)NC1=O (stereo partly specified) (cyclo(A[ξV][ξL][ξK][ξV][ξA][ξL][ξI][ξK][X21][ξK][ξR][ξK][ξR][ξI])) | 4.5 µM | 3.04 µM | 4.44 µM | 4.55 µM | 3.13 µM | – | 2.22 µM | 3.24 µM | 1.79 µM | 1.38 µM | 1.62 µM | 1.5 µM | – | 0.43 µM | 4.09 µM | 1.34 µM | 1.48 µM | 4.1 µM | 1.77 µM | 1.72 µM
COc1cc(Nc2nc3ccc(C(F)(F)F)cc3nc2-c2ccccc2)cc(OC)c1OC | > 100 µM | 79.4 µM | – | > 100 µM | > 100 µM | 65.6 µM | > 100 µM | > 100 µM | – | – | – | – | – | – | > 100 µM | – | – | > 100 µM | – | –
O=C(/C=C/c1ccccc1Cl)c1ccc(Cl)cc1Cl | 32 µM | 28.4 µM | 46.3 µM | 27.6 µM | 32 µM | 31.5 µM | 37.9 µM | 37.4 µM | – | – | – | – | – | – | – | – | – | – | – | –
O=C(c1ccc(Cl)cc1)c1ccc(OCCSCCCCCCCCCCSCCOc2ccc(C(=O)c3ccc(Cl)cc3)cc2)cc1 | > 100 µM | > 100 µM | > 100 µM | > 100 µM | – | > 100 µM | > 100 µM | > 100 µM | – | – | – | – | – | – | > 100 µM | – | – | – | – | –
C1COCCOCCOCCOCCO1.CC(=O)[CH-]C(C)=O.CC(=O)[CH-]C(C)=O.CC(=O)[CH-]C(C)=O.[V] | 44.1 µM | 33.2 µM | 42.2 µM | 22.5 µM | 21 µM | > 100 µM | 31.6 µM | 23 µM | 12 µM | 15 µM | 4.79 µM | 5.59 µM | 37.1 µM | 15.6 µM | 26 µM | 10.6 µM | – | – | 20.1 µM | 10.8 µM
COC1=C(Br)C(=O)C2=C(C1=O)C1C3=C(C(=O)C=CC3=O)C2c2ccccc21 (stereo unspecified) | 34.5 µM | 38.4 µM | – | 45.1 µM | 80.4 µM | 46.4 µM | 48.5 µM | 64.4 µM | 14.8 µM | 15.6 µM | 9.4 µM | 33.4 µM | 21 µM | 17.3 µM | 61.2 µM | 19.4 µM | – | – | – | 20.6 µM
Cc1cc2cn3c4cccnc4[nH]c(=O)c3c2cc1C | 3.1 µM | 2.92 µM | 4.16 µM | – | – | 28 µM | 2.74 µM | 3.08 µM | 1.73 µM | 1.42 µM | – | – | 11.2 µM | 1.37 µM | – | 1.43 µM | – | – | 2.08 µM | –
O=c1c2cccnc2ncn1CCN1CCCC1 | > 100 µM | > 100 µM | – | > 100 µM | > 100 µM | > 100 µM | > 100 µM | > 100 µM | – | – | – | – | – | – | > 100 µM | – | – | > 100 µM | – | –
O=c1c2ccccc2nc(-c2cccc(Cl)c2)n1NCC1(O)OCC(O)C(O)C1O (stereo unspecified) | > 100 µM | > 100 µM | > 100 µM | – | > 100 µM | > 100 µM | > 100 µM | – | – | – | – | – | – | – | > 100 µM | – | – | > 100 µM | – | –
N#Cc1c(N)nc(N2CCOCC2)c(C#N)c1-c1ccccc1Cl | – | > 100 µM | – | 41.7 µM | > 100 µM | > 100 µM | > 100 µM | 32.6 µM | – | 32.4 µM | 14.7 µM | 60.9 µM | 55.5 µM | 37.7 µM | > 100 µM | 0.414 µM | – | – | – | 41.9 µM
N#C/C(=C\c1ccc(Br)cc1)n1nnc2ccccc21 | 2.01 µM | 2 µM | 2.04 µM | 1.43 µM | 3.44 µM | 6.75 µM | 4.2 µM | – | 0.521 µM | 0.345 µM | 0.317 µM | 0.386 µM | 1.4 µM | 1.44 µM | 3.42 µM | – | 0.144 µM | 14.6 µM | 0.287 µM | 0.71 µM
Cc1ccc(Oc2ccc([N+](=O)[O-])cc2[N+](=O)[O-])c(C)c1 | > 100 µM | > 100 µM | 65.2 µM | > 100 µM | > 100 µM | > 100 µM | > 100 µM | > 100 µM | – | – | – | – | – | – | > 100 µM | – | – | – | – | –
